Experimental data taken from the supplement of paper PMC10307832.

Columns and labels:
Test in all cases: relative viability (nuclei count vs DMSO), 5 days (fraction); higher = more cells survive
BEN = tested on: BEN
Outline: (§1)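 Lung cancer cell lines were seeded in 1536-well plates and dosed by pin tool the next day, with either a single drug or a fixed anchor-drug dose combined with five library-drug doses (not always all listed) spaced in √10 steps. Five days later, one step fixed the cells and stained their nuclei (final 0.05% Triton X-100, 1% formaldehyde, 1 ug/ml Hoechst), and nuclei were counted on 4× images. Relative viability is the nuclei count in treated wells divided by the count in vehicle wells, and each value is the median of duplicate plates.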

H3255 = tested on: H3255
Outline: as §1

HCC-15 = tested on: HCC-15
Outline: as §1

HCC-78 = tested on: HCC-78
Outline: as §1

LC-2-ad = tested on: LC-2-ad
Outline: as §1

LCLC-97TM1 = tested on: LCLC-97TM1
Outline: as §1

LK-2 = tested on: LK-2
Outline: as §1

LU99A = tested on: LU99A
Outline: as §1

LXF-289 = tested on: LXF-289
Outline: as §1

NCI-H1651 = tested on: NCI-H1651
Outline: as §1

NCI-H1666 = tested on: NCI-H1666
Outline: as §1

NCI-H1944 = tested on: NCI-H1944
Outline: as §1

NCI-H2087 = tested on: NCI-H2087
Outline: as §1

NCI-H322M = tested on: NCI-H322M
Outline: as §1

NCI-H358 = tested on: NCI-H358
Outline: as §1

NCI-H596 = tested on: NCI-H596
Outline: as §1

NCI-H650 = tested on: NCI-H650
Outline: as §1

NCI-H661 = tested on: NCI-H661
Outline: as §1

NCI-H838 = tested on: NCI-H838
Outline: as §1

PC-3 [JPC-3] = tested on: PC-3 [JPC-3]
Outline: as §1

SK-MES-1 = tested on: SK-MES-1
Outline: as §1

UMC-11 = tested on: UMC-11
Outline: as §1

Clc1ccc(Nc2nnc(Cc3ccncc3)c3ccccc23)cc1 [Vatalanib] + C[C@]1(O)C[C@@H](c2nc(-c3ccc4ccc(-c5ccccc5)nc4c3)c3c(N)nccn32)C1 [Linsitinib] (partner 1 µM)
relative viability (BEN; first compound 0.04 µM): 0.992
relative viability (BEN; first compound 0.1265 µM): 0.785
relative viability (BEN; first compound 0.4 µM): 0.99
relative viability (BEN; first compound 1.265 µM): 0.943
relative viability (BEN; first compound 4 µM): 0.97
relative viability (H3255; first compound 0.04 µM): 0.984
relative viability (H3255; first compound 0.1265 µM): 0.902
relative viability (H3255; first compound 0.4 µM): 0.702
relative viability (H3255; first compound 1.265 µM): 0.932
relative viability (H3255; first compound 4 µM): 0.921
relative viability (HCC-15; first compound 0.04 µM): 0.937
relative viability (HCC-15; first compound 0.1265 µM): 0.911
relative viability (HCC-15; first compound 0.4 µM): 0.902
relative viability (HCC-15; first compound 1.265 µM): 0.87
relative viability (HCC-15; first compound 4 µM): 0.873
relative viability (HCC-78; first compound 0.04 µM): 0.507
relative viability (HCC-78; first compound 0.1265 µM): 0.467
relative viability (HCC-78; first compound 0.4 µM): 0.527
relative viability (HCC-78; first compound 4 µM): 0.448
relative viability (LC-2-ad; first compound 0.04 µM): 0.916
relative viability (LC-2-ad; first compound 0.1265 µM): 0.799
relative viability (LC-2-ad; first compound 0.4 µM): 0.971
relative viability (LC-2-ad; first compound 1.265 µM): 0.841
relative viability (LC-2-ad; first compound 4 µM): 0.883
relative viability (LCLC-97TM1; first compound 0.04 µM): 0.183
relative viability (LCLC-97TM1; first compound 0.1265 µM): 0.17
relative viability (LCLC-97TM1; first compound 0.4 µM): 0.189
relative viability (LCLC-97TM1; first compound 1.265 µM): 0.159
relative viability (LCLC-97TM1; first compound 4 µM): 0.179
relative viability (LK-2; first compound 0.04 µM): 0.712
relative viability (LK-2; first compound 0.1265 µM): 0.423
relative viability (LK-2; first compound 0.4 µM): 0.541
relative viability (LK-2; first compound 1.265 µM): 0.435
relative viability (LK-2; first compound 4 µM): 0.704
relative viability (LU99A; first compound 0.04 µM): 0.545
relative viability (LU99A; first compound 0.1265 µM): 0.585
relative viability (LU99A; first compound 0.4 µM): 0.558
relative viability (LU99A; first compound 1.265 µM): 0.534
relative viability (LU99A; first compound 4 µM): 0.49
relative viability (LXF-289; first compound 0.04 µM): 1.04
relative viability (LXF-289; first compound 0.1265 µM): 0.947
relative viability (LXF-289; first compound 0.4 µM): 0.957
relative viability (LXF-289; first compound 1.265 µM): 0.888
relative viability (LXF-289; first compound 4 µM): 0.919
relative viability (NCI-H1651; first compound 0.04 µM): 0.971
relative viability (NCI-H1651; first compound 0.1265 µM): 0.927
relative viability (NCI-H1651; first compound 0.4 µM): 0.94
relative viability (NCI-H1651; first compound 1.265 µM): 0.948
relative viability (NCI-H1651; first compound 4 µM): 1.13
relative viability (NCI-H1666; first compound 0.04 µM): 0.805
relative viability (NCI-H1666; first compound 0.1265 µM): 0.891
relative viability (NCI-H1666; first compound 0.4 µM): 0.923
relative viability (NCI-H1666; first compound 1.265 µM): 0.779
relative viability (NCI-H1666; first compound 4 µM): 0.708
relative viability (NCI-H1944; first compound 0.04 µM): 1.11
relative viability (NCI-H1944; first compound 0.1265 µM): 0.997
relative viability (NCI-H1944; first compound 0.4 µM): 1.17
relative viability (NCI-H1944; first compound 1.265 µM): 1.2
relative viability (NCI-H1944; first compound 4 µM): 1.23
relative viability (NCI-H2087; first compound 0.04 µM): 1.2
relative viability (NCI-H2087; first compound 0.1265 µM): 0.87
relative viability (NCI-H2087; first compound 0.4 µM): 1.04
relative viability (NCI-H2087; first compound 1.265 µM): 0.908
relative viability (NCI-H2087; first compound 4 µM): 1.05
relative viability (NCI-H322M; first compound 0.04 µM): 0.939
relative viability (NCI-H322M; first compound 0.1265 µM): 0.83
relative viability (NCI-H322M; first compound 0.4 µM): 0.975
relative viability (NCI-H322M; first compound 1.265 µM): 0.959
relative viability (NCI-H322M; first compound 4 µM): 0.919
relative viability (NCI-H358; first compound 0.04 µM): 0.898
relative viability (NCI-H358; first compound 0.1265 µM): 0.718
relative viability (NCI-H358; first compound 0.4 µM): 0.917
relative viability (NCI-H358; first compound 1.265 µM): 0.699
relative viability (NCI-H358; first compound 4 µM): 0.578
relative viability (NCI-H596; first compound 0.04 µM): 1.18
relative viability (NCI-H596; first compound 0.1265 µM): 1.13
relative viability (NCI-H596; first compound 0.4 µM): 0.951
relative viability (NCI-H596; first compound 1.265 µM): 1.14
relative viability (NCI-H596; first compound 4 µM): 1.08
relative viability (NCI-H650; first compound 0.04 µM): 0.942
relative viability (NCI-H650; first compound 0.1265 µM): 0.77
relative viability (NCI-H650; first compound 1.265 µM): 0.723
relative viability (NCI-H650; first compound 4 µM): 0.833
relative viability (NCI-H661; first compound 0.04 µM): 0.59
relative viability (NCI-H661; first compound 0.1265 µM): 0.477
relative viability (NCI-H661; first compound 0.4 µM): 0.616
relative viability (NCI-H661; first compound 1.265 µM): 0.581
relative viability (NCI-H661; first compound 4 µM): 0.581
relative viability (NCI-H838; first compound 0.04 µM): 1.01
relative viability (NCI-H838; first compound 0.1265 µM): 0.994
relative viability (NCI-H838; first compound 0.4 µM): 1.15
relative viability (NCI-H838; first compound 1.265 µM): 0.932
relative viability (NCI-H838; first compound 4 µM): 0.976
relative viability (PC-3 [JPC-3]; first compound 0.04 µM): 0.986
relative viability (PC-3 [JPC-3]; first compound 0.1265 µM): 1.01
relative viability (PC-3 [JPC-3]; first compound 0.4 µM): 0.957
relative viability (PC-3 [JPC-3]; first compound 1.265 µM): 0.824
relative viability (PC-3 [JPC-3]; first compound 4 µM): 0.932
relative viability (SK-MES-1; first compound 0.04 µM): 1.04
relative viability (SK-MES-1; first compound 0.1265 µM): 1.03
relative viability (SK-MES-1; first compound 0.4 µM): 1.17
relative viability (SK-MES-1; first compound 1.265 µM): 1.02
relative viability (SK-MES-1; first compound 4 µM): 0.928
relative viability (UMC-11; first compound 0.04 µM): 1.03
relative viability (UMC-11; first compound 0.1265 µM): 0.808
relative viability (UMC-11; first compound 0.4 µM): 1.01
relative viability (UMC-11; first compound 1.265 µM): 1.04
relative viability (UMC-11; first compound 4 µM): 0.987
